The values below come from article PMC10583261 (CPT: Pharmacometrics & Systems Pharmacology, 2023).

The format of data set [1] is in vivo, human.
For data set [2] the following is noted: ref data on file, cited from earlier work.
For data set [3] the following is noted: weak-base compound; ref data on file; cited from earlier work.
[4] abbreviates: final population PK model, healthy subjects.

Values after ≈ are worked out from the molar mass of the structure shown. Values joined by “and” are separate entries in the source; they are usually repeats but may differ in a detail not shown here. Identical values can stand only once. Like-named read-outs stand apart in the source and are kept apart here.

With `N#Cc1ccc(N2CCN(Cc3ccc(COc4cccc5c4CN([C@H]4CCC(=O)NC4=O)C5=O)cc3)CC2)c(F)c1` [mezigdomide], in data set [1] (fed vs fasted, model-estimated), the “decrease in ka with high-fat meal” value is recorded as ~ 30%, the “increase in Tlag with high-fat meal” value is on record as ~ 0.85 h and the “increase of relative oral bioavailability F with high-fat meal” value is ~ 30%. Moreover, in data set [1] (final population PK model), the “interindividual variability (IIV) of central volume of distribution V1” value was 63% and 63.4%; the “interindividual variability (IIV) of clearance” value is 40% and 39.9% and ~ 40%; the “interindividual variability (IIV) of intercompartmental clearance” value worked out at 26%; the “interindividual variability (IIV) of peripheral volume of distribution” value is 26%. Also, the “interoccasion variability (IOV) of absorption rate constant ka” value in data set [1] (final population PK model) came out at 65%. Further, in data set [1] (setting [4]), the “V1pop, distribution volume of the central compartment” value is on record as 440 L and the “V2pop, distribution volume of the peripheral compartment” value came to 243 L. For the same compound, the dose-exposure relationship entry in data set [1] (healthy subjects, 0.4–3.2 mg) is reported as “linear”. Further, in data set [1] (population PK parameter, healthy subjects (abstract)), the absorption rate constant stood at 1.18 h⁻¹. For the same compound, in data set [1] (rabeprazole vs no PPI, model-estimated), the “decrease in relative oral bioavailability F with PPI co-administration” value is given as ~ 64%. Further, the Solubility (in general, how much of the substance goes into solution per volume) in data set [2] (pH 1) was 133 µg/mL (≈ 234 µM). Also, the Solubility in data set [2] (pH 5) is 1 µg/mL (≈ 1.76 µM). Besides, the “decrease of solubility from pH 1 to pH 5” value in data set [2] is listed as ~ 100 fold. In addition, the dissociation constant in data set [3] is 6.
